Source: US20100297157A1, “VACCINE THERAPY FOR CHOROIDAL NEOVASCULARIZATION” (priority 2007, published 2010)

What was measured:
CNV lesions [1] = assay: Evaluation of the grade of CNV by fluorescein angiography (leakage from laser-induced CNV lesions); type: in vivo, mice expressing human HLA-A*0201
Procedure: (§1) C57bl/6 mice with body weight of 20 g to 25 g were obtained from CLEA Japan (Tokyo, Japan). All experiments were conducted in accordance with the Animal Care and Use Committee and the Statement for the Use of Animals in Ophthalmic and Vision Research by the Association for Research in Vision and Opthalmology. Mice used in the experiments express human HLA-A*0201.
(§2) The mice were separated into three groups. PBS, an immunity adjuvant (incomplete Freund's adjuvant (IFA)), or a suspension of a human VEGF receptor 2-derived antigenic peptide and IFA was injected subcutaneously into the axillae twice (day 0 and day 10). […] Subsequently, on day 20, CNV was induced at three sites in both eyes using a semiconductor laser set to φ 200 μm, 200 mW, and 0.02 seconds.
(§3) Experimental CNV was induced as described elsewhere with minor modifications. In short, general anesthesia was induced with an intraperitoneal injection (1 mL/kg) of a mixture (1:1) of ketamine hydrochloride (Ketalar®, Sankyo, Tokyo, Japan) and xylazine hydrochloride (Celactal®, Bayer, Tokyo, Japan). The pupil was dilated using one drop of 0.5% tropicamide (Mydrin® M, Santen Pharmaceutical, Osaka, Japan) for photocoagulation. Six laser photocoagulations were applied to each eye between the major retinal vessels around the optic disc with a diode laser photocoagulator (DC-3000®, NIDEK, Osaka, Japan) and a slit lamp delivery system (SL150, Topcon, Tokyo, Japan) at a spot size of […], duration of 0.02 seconds, and intensity of 200 mW.
Three and seven days after CNV induction (on day 23 and day 27), a total of 169 animals were used to examine the effect on leakage from the CNV lesions (on the third day, the number of animals from the control group, low-dose group, and high-dose group was 41, 34, and 18, respectively; on the seventh day, the number of animals from the control group, low-dose group, and high-dose group was 51, 15, and 10, respectively). […]
(§4) The fluorescein fluorescent fundus angiography scores were evaluated using Mann-Whitney U test. The size of CNV lesion was evaluated by ANOVA followed by Dunnett's post hoc test. […]

CNV lesions [2] = assay: Measurement of the CNV size by choroidal flat mount; type: in vivo, mice expressing human HLA-A*0201
Procedure: as §1, §2, §3
A total of 36 mice were used for choroidal flat mount analysis (the number of mice from each group on the third day and the seventh day was 4 and 8, respectively). Three days and seven days after laser treatment, the size of CNV lesion was evaluated using choroidal flat mounts as previously described. The mice were anesthetized and perfused with 1 mL of phosphate buffered saline (PBS) containing 50 mg/mL FITC-conjugated dextran (4.4 kDa, 50 mg/kg body weight; Sigma). Then, the eyes were enucleated, and the cornea and lens were removed, and the entire retina was carefully dissected from the eye cup. Radial cuts were made from the edges of the equator, and the eyecup was flat-mounted on a glass slide with the sclera facing down. The flat-mounted sections were observed under a fluorescence microscope (Olympus DPSO), and the images were captured using a CCD camera. The data were imported into a computer using a software system (Studio lite). […] The data were expressed as mean±standard error.
as §4

VEGF = VEGF up-regulation in experimental CNV; details: in vivo
tumor model = details: cited from earlier work
[3] = seventh day, low-dose group vs control group

VIAMFFWLL (IFA emulsion; listed as Homo sapiens) [nine amino acids from position 773 of human VEGFR-2; injected as a suspension with IFA]
fluorescein leakage from the CNV lesions (CNV lesions [1]; seventh day, high-dose group vs control): lower | leakage from CNV lesions (CNV lesions [1]; [3]): not statistically significant, the leakage from CNV lesions was lower | degree of fluorescein leakage from CNV lesions (CNV lesions [1]; third day after CNV induction, low-dose and high-dose groups vs control group, s.c. injection day 0 and day 10): no difference was observed | CNV growth (CNV lesions [2]; in vivo, effect observed only on the seventh day and not on the third day): inhibits CNV growth | CNV lesion size (CNV lesions [2]; seventh day, high-dose group vs control group): significantly decreased | CNV lesion size (CNV lesions [2]; [3]): significantly decreased | CNV lesion size (CNV lesions [2]; third day, low-dose and high-dose groups vs control group): No difference was observed | VEGF up-regulation (VEGF): suppresses VEGF up-regulation | antiangiogenic effect (tumor model): confirmed to have antiangiogenic effect
